Reference: PMC9595134, “Novel pituitary actions of GnRH in teleost: The link between reproduction and feeding regulation” (Frontiers in Endocrinology, 2022)
Where a SMILES comes first, the peptide text is derived from it. [ ]: non-standard residue; d: D form. pGlu = O=C1CC[C@@H](C(=O)O)N1

Tests used:
pituitary = settings: teleost; ref [5], [10]; cited from earlier work
Text: Subsequently, GnRH2 had been firstly found in chicken so that this variant was also named as chicken GnRH (cGnRH) ([3]). In addition, the third GnRH variant (GnRH3) was an ubiquitous and unique subtype existing in fish ([3]), which was primitively discovered in salmon so that it was named as salmon GnRH (sGnRH) ([4]). Multiple GnRH variants (two or three forms) are present in all teleosts ([5]), but the receptor selectivity a ...

[1] = test system: grass carp pituitary cells; test: qRT-PCR of reproductive hormone genes in pituitary cells; type: cell-based, grass carp (Ctenopharyngodon idellus)
Experimental: The preparation of grass carp pituitary cells was performed as mentioned above. After drug treatment, the total RNA of these cells was isolated by TRIzol reagent and reverse transcribed into cDNA with Hifair™ III 1st Strand cDNA Synthesis Kit. The transcript levels of several anorectic peptides (POMCb, CART2, UTS1, NMBa, NMBb, and Lepr) and reproductive genes (GtHα, LHβ, FSHβ, INHBa, SgII, DRD2) were detected by using an ABI 7500 quantitative real-time PCR (qRT-PCR) system (Biosystems, USA) (information of primers for target genes is listed in Supplementary Table S3 ). In this process, a serial gradient dilution of plasmid DNA of these genes was used as a standard for data calibration. The conditions of qRT-PCR were set to 10 min, 95°C, for pre-degeneration; 15 s, 95°C, for degeneration; 30 s, 55°C–60°C, for annealing; 30 s, 72°C, for extending; and 20 s, 82°C, for signal detection with 40 cycles. Finally, the melt curve obtained through each test was used to verify and check the reliability and specificity of the corresponding qRT-PCR.
The transcript level was detected using qRT-PCR by ABI 7500 software, while the data calibration of each reaction was performed through standard curves with the dynamic range of 10^5 and correlation coefficient >0.95. The transcript level of β-actin was used as an internal control, and target gene mRNA expression was normalized and calculated as a percentage of the mean value (as “% Ctrl”). Based on merging four to eight replicates (as mean ± SEM), the data were analyzed with a one-way ANOVA to differentiate the significant differences from other treatment experiments. The SPSS Statistics 26.0 software was used to do a Dunnett’s post-hoc test. […] The different letters represent a significant difference at p < 0.05 between groups.
To further verify the reproductive function of GnRHs, time- and dose-dependent tests were performed to detect GnRH2- or GnRH3-regulated GtHα, LHβ, FSHβ, INHBa, SgII, and DRD2 mRNA expression in grass carp pituitary cells. […] In the dose-dependent test, a continuous gradient dilution of GnRH2 (0.1–1,000 nM) or GnRH3 (0.1–1,000 nM) was incubated with grass carp pituitary cells for 24 h.
Figure 5 Regulation of reproductive hormone gene mRNA expression by GnRH2 and GnRH3 in grass carp pituitary cells. (A) Time-course experiment of grass carp GnRH2 (1 μM) and GnRH3 (1 μM) on GtHα, LHβ, FSHβ, INHBa, SgII, and DRD2 mRNA expression in grass carp pituitary cells. (B) Dose dependence of a 24-h treatment with increasing levels of GnRH2 and GnRH3 (0.1–1,000 nM) on GtHα, LHβ, FSHβ, INHBa, SgII, and DRD2 mRNA expression in grass carp pituitary cells. After drug treatment, the pituitary cells were extracted to total RNA, reversed transcribed, and used for RT-PCR to detect the target genes’ mRNA expression. […] The different letters represent a significant difference at p < 0.05 between groups (ANOVA followed by a Dunnett test).

[2] = 1 μM, time-dependent, Figure 5A

CC(C)C[C@H](NC(=O)[C@H](Cc1c[nH]c2ccccc12)NC(=O)CNC(=O)[C@H](Cc1ccc(O)cc1)NC(=O)[C@H](CO)NC(=O)[C@H](Cc1c[nH]c2ccccc12)NC(=O)[C@H](Cc1c[nH]cn1)NC(=O)[C@@H]1CCC(=O)N1)C(=O)N1CCC[C@H]1C(=O)NCC(N)=O [GnRH3] ([pGlu]HWSYGWLPG-NH2)
effect on LH and FSH secretion in the pituitary (pituitary): could stimulate | effect on DRD2 mRNA expression, time course [1, 2]: inhibit | effect on GtHα, LHβ, FSHβ, INHBa, and SgII mRNA expression, time course [1, 2]: significantly induce | effect on DRD2 mRNA expression, dose test ([1]; 0.1–1,000 nM (all treated doses), 24 h, Figure 5B): significantly inhibit | effect on GtHα, LHβ, FSHβ, INHBa, and SgII mRNA expression, dose dependence ([1]; 0.1–1,000 nM, 24 h, dose-dependent, Figure 5B): significantly induce
